Measurements taken from publication PMC6613200 (International Journal of Nanomedicine, 2019).

Tests used:
HSA = experiment: SPR selectivity, peptide vs interfering HSA; format: binding, human; details: mixture containing 20 nM BSA and 20 nM HSA with hCG; 100 μM peptide
[1] = SPR binding of peptide aptamer to Au/Cys/carboxyl-GO chip; details: carboxyl-GO with peptide aptamer, 1:1 Langmuir model
BSA = experiment: SPR selectivity, peptide vs interfering BSA; format: binding, bovine; details: mixture containing 20 nM BSA and 20 nM HSA with hCG; 100 μM peptide

KA ([1]; flow rate 30 µL/min): 2.81e+07 M⁻¹ | KD (kd/ka) ([1]; flow rate 30 µL/min): 0.36×10^–7 M | association rate ka ([1]; flow rate 30 µL/min): 32.57 ×10[4] M^−1 s^−1 | association rate ka ([1]; flow rate 60 µL/min): 13.75 ×10[4] M^−1 s^−1 | association rate ka ([1]; flow rate 90 µL/min): 7.89 ×10[4] M^−1 s^−1
Substance: (N-)PPLRINRHILTR(-C) [peptide aptamer]
interaction of peptide with interfering protein (HSA): no significant interaction between the two proteins and the peptide | interaction of peptide with interfering protein (BSA): no significant interaction between the two proteins and the peptide
